Source: article PMC5152921, “Evolutionary and Functional Diversification of the Vitamin D Receptor-Lithocholic Acid Partnership” (PLoS ONE, 2016)

How the values were obtained:
Bichir VDR = target: T1, Bichir VDR (Polypterus senegalus, UniProt A0A088GJ14); test: Mammalian 2-hybrid assay (VDR-coregulator interaction, HepG2); format: cell-based; details: 100 μM LCA
T1 sequence (A0A088GJ14 1-421): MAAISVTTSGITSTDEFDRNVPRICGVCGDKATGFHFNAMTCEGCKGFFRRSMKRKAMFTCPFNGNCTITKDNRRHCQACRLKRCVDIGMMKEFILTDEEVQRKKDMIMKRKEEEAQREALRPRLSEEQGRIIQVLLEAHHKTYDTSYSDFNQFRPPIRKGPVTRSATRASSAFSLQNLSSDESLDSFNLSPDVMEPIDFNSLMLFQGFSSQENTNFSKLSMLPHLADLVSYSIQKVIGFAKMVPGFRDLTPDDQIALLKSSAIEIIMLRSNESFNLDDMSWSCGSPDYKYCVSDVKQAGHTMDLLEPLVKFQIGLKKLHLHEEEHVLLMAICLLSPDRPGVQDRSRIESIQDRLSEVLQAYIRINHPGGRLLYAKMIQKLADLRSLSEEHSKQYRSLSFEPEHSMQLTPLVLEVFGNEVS
T1 sequence (P19793 1-462 partner): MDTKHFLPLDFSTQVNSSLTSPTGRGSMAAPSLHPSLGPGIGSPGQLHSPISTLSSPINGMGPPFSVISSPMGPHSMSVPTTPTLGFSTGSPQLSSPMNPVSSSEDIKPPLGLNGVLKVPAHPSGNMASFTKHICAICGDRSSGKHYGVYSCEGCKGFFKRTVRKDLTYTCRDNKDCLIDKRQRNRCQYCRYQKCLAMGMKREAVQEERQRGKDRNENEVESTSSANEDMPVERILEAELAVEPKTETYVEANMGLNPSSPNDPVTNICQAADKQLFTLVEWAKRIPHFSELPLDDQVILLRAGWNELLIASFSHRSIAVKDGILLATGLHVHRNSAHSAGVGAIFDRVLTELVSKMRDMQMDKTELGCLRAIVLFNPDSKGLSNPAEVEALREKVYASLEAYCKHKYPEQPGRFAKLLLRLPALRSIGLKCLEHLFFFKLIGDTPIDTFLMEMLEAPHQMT
Text: Prey constructs included full-length VDRs fused to the herpes simplex VP16 activation domain (pVP16-VDR). Bait constructs consisted of either full-length wild-type human RXR (pM-RXRWT), a truncated human RXR mutant (pM-RXRAF2), or the defined NR box of each member of the SRC/p160 family (pM-SRC1_241-386, pM-GRIP1_479-767, or pM-ACTR392-1005) fused to the yeast Gal4 DNA-binding domain. Reporters included the Gal4 luciferase reporter (5xGal4-TATA-Luc) and pRL-CMV as an internal luciferase control.
HepG2 cells were seeded into 96-well tissue culture plates as described above and transfected with Lipofectamine 2000 the following day. Each well received 33.6 ng pVP16-VDR, 33.6 ng pM-coregulator (where indicated), 126.6 ng 5XGal4-TATA-Luc, and 3 ng pRL-CMV. […] Positive controls were treated with 1,25D3 and vehicle controls were treated with ethanol. Luciferase activity was measured 24 hours post-exposure using the Dual-Glo Luciferase Assay System described above. Raw luciferase data were normalized to the pRL-CMV luciferase control. VDR-coregulator response was normalized to the pVP16-VDR in the absence of bait constructs. Results were analyzed using a two-way ANOVA followed by Bonferroni’s multiple comparisons test in Prism (GraphPad Inc, San Diego, CA). All experiments were replicated 3 times and conducted as groups of 4 replicate wells.

Zebrafish VDRβ = target: T2, Zebrafish VDRβ (Danio rerio, UniProt Q1L673); test: Competitive ligand binding assay ([3H]-1,25D3 displacement); set-up: 89.7 ng/well of full-length pSG5-VDR was co-transfected; expressed in transfected cells; host or cells: COS7; details: lysate with VDR and human RXRWT; 4 nM [3H]-1,25D3; 18 hours at 4°C; Cheng-Prusoff; mean ± SEM
T2 sequence (Q1L673 1-422): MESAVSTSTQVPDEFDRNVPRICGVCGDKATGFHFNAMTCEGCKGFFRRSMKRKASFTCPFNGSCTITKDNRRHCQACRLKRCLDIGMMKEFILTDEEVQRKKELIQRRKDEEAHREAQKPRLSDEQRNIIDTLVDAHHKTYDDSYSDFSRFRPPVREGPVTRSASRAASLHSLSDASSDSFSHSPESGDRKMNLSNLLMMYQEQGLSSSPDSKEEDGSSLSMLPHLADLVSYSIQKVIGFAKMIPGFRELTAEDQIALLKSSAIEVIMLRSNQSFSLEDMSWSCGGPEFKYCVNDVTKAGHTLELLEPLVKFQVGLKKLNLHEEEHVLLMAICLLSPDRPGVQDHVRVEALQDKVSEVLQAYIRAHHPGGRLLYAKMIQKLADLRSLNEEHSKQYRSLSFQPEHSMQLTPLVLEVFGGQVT
Experimental: Recombinant VDR and human RXRWT lysates were prepared from transfected COS7 cells (American Type Culture Collection #CRL-1651) as described in detail previously. Lysates were diluted 10-fold in ice-cold assay buffer (10 mM Tris HCl, 150 mM KCl, 1 mM EDTA, 0.3 mM ZnCl2, 5 mM DTT, and 1x protease inhibitor cocktail (100 μM AEBSF, 80 nM aprotinin, 5 μM bestatin, 1.5 μM E-64 (for cysteine proteases), 2 μM leupeptin, 1 μM pepstatin A), pH 7.5). […] Reactions were shaken to mix and incubated for 18 hours at 4°C. Bound and free ligand were separated with the addition of 80 μL of ice-cold separation buffer (2.5% (w/v) activated charcoal, 0.5% (w/v) dextran, 100 mM Na2HPO4, 39 mM NaH2PO4, 150 mM NaCl, 15 mM NaN3, 10% gelatin, pH 7.0), and incubated at 4°C for 15 minutes with shaking every 5 minutes. Reactions were centrifuged at 5,000 x g for 5 minutes at 4°C, and 200 μL of the supernatant containing the VDR-bound ligands was removed for scintillation counting.
Total binding was determined using lysate from cells transfected with VDR, and nonspecific binding was determined using lysate from cells transfected with the empty pSG5 vector. Specific binding was determined by subtracting non-specific binding counts from the total binding counts.

With `C[C@H](CCC(=O)O)[C@H]1CC[C@H]2[C@@H]3CC[C@@H]4C[C@H](O)CC[C@]4(C)[C@H]3CC[C@]12C` [LCA, 5β-cholanic acid-3α-ol] the VDR-SRC/p160 coactivator interaction (Bichir VDR; any of the SRC/p160 coactivators) was “No protein-protein interaction was observed”, the “VDR-RXRWT interaction (heterodimerization)” value (Bichir VDR; bait human RXRWT, presence and absence of SRC1) was “not observed” and the Ki (Zebrafish VDRβ) was 6.7 ± 1.9 µM.
